The values below come from patent publication US20250122221A1 (NANJING ZAIMING PHARMACEUTICAL CO., LTD., priority 2022, published 2025).

pIC50: −log10 of the molar value.

Sequence of N-terminal active peptide segment (MI-N899) of POLQ with ATPase activity (O75417 1-899 limits assumed): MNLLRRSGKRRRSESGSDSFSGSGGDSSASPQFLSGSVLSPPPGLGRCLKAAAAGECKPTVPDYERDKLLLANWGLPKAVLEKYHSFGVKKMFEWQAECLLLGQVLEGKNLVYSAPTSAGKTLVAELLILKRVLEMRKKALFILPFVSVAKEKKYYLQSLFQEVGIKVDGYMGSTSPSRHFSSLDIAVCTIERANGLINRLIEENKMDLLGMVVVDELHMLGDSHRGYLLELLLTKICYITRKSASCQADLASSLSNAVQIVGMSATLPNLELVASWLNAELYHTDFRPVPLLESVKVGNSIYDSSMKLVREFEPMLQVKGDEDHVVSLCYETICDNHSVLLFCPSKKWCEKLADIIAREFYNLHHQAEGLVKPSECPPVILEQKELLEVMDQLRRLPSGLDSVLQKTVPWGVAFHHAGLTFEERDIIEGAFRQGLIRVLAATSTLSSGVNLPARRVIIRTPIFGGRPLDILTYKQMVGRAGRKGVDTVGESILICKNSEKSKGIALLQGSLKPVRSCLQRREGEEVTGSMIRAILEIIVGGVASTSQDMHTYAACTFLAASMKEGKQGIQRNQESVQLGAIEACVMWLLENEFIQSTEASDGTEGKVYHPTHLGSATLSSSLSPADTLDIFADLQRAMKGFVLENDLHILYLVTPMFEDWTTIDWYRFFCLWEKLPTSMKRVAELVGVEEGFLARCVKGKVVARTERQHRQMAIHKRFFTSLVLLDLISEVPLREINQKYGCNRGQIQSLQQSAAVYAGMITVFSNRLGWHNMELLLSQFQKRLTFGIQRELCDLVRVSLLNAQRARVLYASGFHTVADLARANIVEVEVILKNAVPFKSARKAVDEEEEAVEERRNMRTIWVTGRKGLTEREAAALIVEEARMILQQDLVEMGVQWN

The target in the test is N-terminal active peptide segment (MI-N899) of POLQ with ATPase activity (Homo sapiens (Human), UniProt O75417). Description: POLQ enzyme activity inhibition experiment (ATPase, NADH-coupled, OD 340 nm). Format: biochemical. The conditions noted are these: 100 nM POLQ (N), 100 μM ATP, 300 nM dT50. As to the method:
The Envision microplate reader from Perkin Elmer Inc was used to measure the reduction of OD value of NADH at 340 nm, thus reflecting the enzyme activity. Experimental method: The POLQ enzyme was diluted to 100 nM with a reaction buffer (20 mM Tris HCl (pH 7.80), 80 mM KCl, 10 mM MgCl2, 1 mM DTT, 0.01% w/v bovine serum albumin, 0.01% v/v Tween-20, and 5% v/v glycerol). The compounds to be tested were diluted to different concentrations in dimethyl sulfoxide (DMSO) using the Echo 650 pipetting system, and transferred to a 384-well plate, 20 μL/well of 100 nM POLQ was added, and the mixture was incubated at room temperature for 15 minutes. A reaction mixture solution was formulated, and the concentration of each component in the reaction mixture solution was: 100 μM ATP, 300 nM […], 300 μM NADH, 6 mM PEP, 10 U/mL lactate dehydrogenase and 20 U/mL pyruvate kinase. 20 μL/well of reaction mixture solution was added to start the enzyme reaction. […] The concentration range was from 10 μM to 0.0005 μM, and the final concentration of DMSO in the system was 0.2% v/v. The 384-well plate was reacted at room temperature for 20 minutes, and then the OD value at 340 nm was read with an Envision microplate reader. The inhibition rate was calculated, and XLfit software was used to perform fitting to obtain IC50 of the compounds. In the experiment, a blank group and a DMSO group were set up, respectively.
In the case of `COc1ccccc1-c1cnccc1C(=O)Nc1nc2ncc(-c3ccc(C#N)nc3)nc2s1` [Compound 11, N-(6-(6-cyanopyridin-3-yl)thiazolo[4,5-b]pyrazin-2-yl)-3-(2-methoxyphenyl)isonicotinamide], the pIC50 is > 7.00.
The value for `C#Cc1ccccc1-c1cc(C)ncc1C(=O)Nc1nc2ncc(-c3ccc(C#N)cc3)cc2s1` [Compound 60, N-(6-(4-cyanophenyl)thiazolo[4,5-b]pyridin-2-yl)-4-(2-ethynylphenyl)-6-methylpyridine-3-carboxamide] was > 7.00.
Next, `COc1cc(-c2cnc3nc(NC(=O)c4ccncc4-c4ccccc4OC)sc3n2)ccc1C#N` [Compound 14, N-(6-(4-cyano-3-methoxyphenyl)thiazolo[4,5-b]pyrazin-2-yl)-3-(2-methoxyphenyl)isonicotinamide]: > 7.00.
Take `C#Cc1cccc(F)c1-c1cc(C)ncc1C(=O)Nc1nc2ncc(-c3ccc(C#N)cc3)nc2s1` [Compound 49, N-(6-(4-cyanophenyl)thiazolo[4,5-b]pyrazin-2-yl)-4-(2-ethynyl-6-fluorophenyl)-6-methylpyridine-3-carboxamide]: the pIC50 is > 7.00.
Turning to `COc1ccccc1-c1cc(C#N)ncc1C(=O)Nc1nc2ncc(-c3ccc(C#N)cc3)nc2s1` [Compound 35, 6-cyano-N-(6-(4-cyanophenyl)thiazolo[4,5-b]pyrazin-2-yl)-4-(2-methoxyphenyl)pyridine-3-carboxamide], the pIC50 was > 7.00.
As to `COc1cnc(C)c(F)c1-c1cc(C)ncc1C(=O)Nc1nc2ncc(-c3ccc(C#N)cc3)nc2s1` [Compound 76, N-(6-(4-cyanophenyl)thiazolo[4,5-b]pyrazin-2-yl)-3′-fluoro-5′-methoxy-2′,6-dimethyl-[4,4′-bipyridine]-3-carboxamide], the pIC50 was > 7.00.
For `COc1ccccc1-c1cn2ccnc2cc1C(=O)Nc1nc2ncc(-c3ccc(C#N)cc3)nc2s1` [Compound 41, N-(6-(4-cyanophenyl)thiazolo[4,5-b]pyrazin-2-yl)-6-(2-methoxyphenyl)imidazo[1,2-a]pyridine-7-carboxamide], the pIC50 is > 7.00.
`COc1ccccc1-c1cc(C#N)ncc1C(=O)Nc1nc2ncc(-c3ccc(=O)n(C)c3)nc2s1` [Compound 19, 6-cyano-4-(2-methoxyphenyl)-N-(6-(1-methyl-6-oxo-1,6-dihydropyridin-3-yl)thiazolo[4,5-b]pyrazin-2-yl)nicotinamide]: the pIC50 is > 7.00.
`COc1ccc(C#N)cc1-c1cc(C)ncc1C(=O)Nc1nc2ncc(-c3ccc(C4CC4)cn3)nc2s1` [Compound 22, 4-(5-cyano-2-methoxyphenyl)-N-(6-(5-cyclopropylpyridin-2-yl)thiazolo[4,5-b]pyrazin-2-yl)-6-methylnicotinamide]: the pIC50 is > 7.00.
As to `Cc1cc(-c2cc(Cl)ccc2C(F)(F)F)c(C(=O)Nc2nc3ncc(-c4ccc(C#N)cc4)nc3s2)cn1` [Compound 88, 4-(5-chloro-2-(trifluoromethyl)phenyl)-N-(6-(4-cyanophenyl)thiazolo[4,5-b]pyrazin-2-yl)-6-methylpyridine-3-carboxamide], the pIC50 was > 7.00.
Regarding `C#Cc1cnc(C)cc1-c1cc(C)ncc1C(=O)Nc1nc2ncc(-c3ccc(C#N)cc3)nc2s1` [Compound 64, N-(6-(4-cyanophenyl)thiazolo[4,5-b]pyrazin-2-yl)-5′-ethynyl-2′,6-dimethyl-[4,4′-bipyridine]-3-carboxamide], the pIC50 was > 7.00.
`N#Cc1cc(-c2ccccc2OC(F)F)c(C(=O)Nc2nc3ncc(-c4ccc(Cl)cc4)nc3s2)cn1` [Compound 18, N-(6-(4-chlorophenyl)thiazolo[4,5-b]pyrazin-2-yl)-6-cyano-4-(2-(difluoromethoxy)phenyl)nicotinamide]: the pIC50 was > 7.00.
Turning to `C#Cc1ccccc1-c1cc(C#N)ncc1C(=O)Nc1nc2ncc(-c3ccc(Cl)cc3)nc2s1` [Compound 38, N-(6-(4-chlorophenyl)thiazolo[4,5-b]pyrazin-2-yl)-6-cyano-4-(2-ethynylphenyl)pyridine-3-carboxamide], the pIC50 is > 7.00.
Regarding `COc1cc(C#N)ccc1-c1cnc2nc(NC(=O)c3ccncc3-c3ccccc3OC)sc2n1` [Compound 15, N-(6-(4-cyano-2-methoxyphenyl)thiazolo[4,5-b]pyrazin-2-yl)-3-(2-methoxyphenyl)isonicotinamide], the pIC50 is > 7.00.
Take `COc1ccccc1-c1cc(C)ncc1C(=O)Nc1nc2ncc(-c3ccc(C#N)cc3)nc2s1` [Compound 31, N-(6-(4-cyanophenyl)thiazolo[4,5-b]pyrazin-2-yl)-4-(2-methoxyphenyl)-6-methylpyridine-3-carboxamide]: the pIC50 is > 7.00.
On to `COc1ccccc1-c1cnccc1C(=O)Nc1nc2ncc(-c3cccc(Cl)c3)nc2s1` [Compound 5, N-(6-(3-chlorophenyl)thiazolo[4,5-b]pyrazin-2-yl)-3-(2-methoxyphenyl)pyridine-4-carboxamide], for which the pIC50 is > 7.00.
Consider `N#Cc1ccc(C(=O)Nc2nc3ncc(-c4ccc(Cl)cc4)nc3s2)c(-c2ccccc2C#N)c1` [Compound 37, N-(6-(4-chlorophenyl)thiazolo[4,5-b]pyrazin-2-yl)-2′,5-dicyano-[1,1′-biphenyl]-2-carboxamide], for which the pIC50 is > 7.00.
For the compound `COc1ccccc1-c1ncccc1C(=O)Nc1nc2ncc(-c3ccc(C#N)cc3)nc2s1` [Compound 50, N-(6-(4-cyanophenyl)thiazolo[4,5-b]pyrazin-2-yl)-2-(2-methoxyphenyl)pyridine-3-carboxamide], the pIC50 was > 7.00.
As to `COc1ccccc1-c1cnccc1C(=O)Nc1nc2cnc(-c3ccc(Cl)cc3)nc2s1` [Compound 8, N-(5-(4-chlorophenyl)thiazolo[5,4-d]pyrimidin-2-yl)-3-(2-methoxyphenyl)pyridine-4-carboxamide], the pIC50 was > 7.00.
On to `COc1cccc(F)c1-c1cnccc1C(=O)Nc1nc2ncc(-c3ccc(Cl)cc3)nc2s1` [Compound 3, N-(6-(4-chlorophenyl)thiazolo[4,5-b]pyrazin-2-yl)-3-(2-fluoro-6-methoxyphenyl)pyridine-4-carboxamide], for which the pIC50 is > 7.00.
For the compound `COc1ccccc1-c1cn2ncnc2cc1C(=O)Nc1nc2ncc(-c3ccc(C#N)cc3)nc2s1` [Compound 57, N-(6-(4-cyanophenyl)thiazolo[4,5-b]pyrazin-2-yl)-6-(2-methoxyphenyl)-[1,2,4]triazolo[1,5-a]pyridine-7-carboxamide], the negative logarithm of the IC50 (pIC50) was > 7.00.
In the case of `COc1ccccc1-c1cc(C(F)(F)F)ncc1C(=O)Nc1nc2ncc(-c3ccc(C#N)cc3)nc2s1` [Compound 36, N-(6-(4-cyanophenyl)thiazolo[4,5-b]pyrazin-2-yl)-4-(2-methoxyphenyl)-6-(trifluoromethyl)pyridine-3-carboxamide], the pIC50 is > 7.00.
The value for `COc1ccccc1-c1cnccc1C(=O)Nc1nc2ncc(-c3ccc(Cl)cc3)cc2s1` [Compound 10, N-(6-(4-chlorophenyl)thiazolo[4,5-b]pyridin-2-yl)-3-(2-methoxyphenyl)isonicotinamide] was > 7.00.
Regarding `COc1cnc(C)cc1-c1cc(C)ncc1C(=O)Nc1nc2ncc(-c3ccc(Cl)cn3)nc2s1` [Compound 66, N-(6-(5-chloropyridin-2-yl)thiazolo[4,5-b]pyrazin-2-yl)-5′-methoxy-2′,6-dimethyl-[4,4′-bipyridine]-3-carboxamide], the pIC50 was > 7.00.

In general, pIC50 refers to the IC50 on a negative log10 scale, so that one unit is a factor of ten. A lower pIC50 goes with a high IC50.
